Test results published in patent publication US6086789A, “Medical uses of pyruvates” (Case Western Reserve University, priority 1998, dated 2000).
Blank lines part the entries; values can stand above or below the compound they belong to.

Legend:
isolated rabbit hearts [1] = experiment: Recovery of isolated rabbit hearts following massive catecholamine injury; details: 50 μM isoproterenol, after 10 minutes
Protocol: Recovery of isolated rabbit hearts following massive catecholamine injury
Rabbit hearts were perfused in the working mode as in the above example. However, after the 30 minutes of equilibration, 50 μM isoproterenol was added to the inflowing perfusate for 10 min. Isoproterenol is a catecholamine, which, at the dose administered, induces a marked increase in heart rate and cardiac output. After 10 minutes, the mechanical performance of the hearts decreased markedly to the point where cardiac output was almost zero. Then, isoproterenol infusion was stopped, and perfusion was continued for 30 minutes with oxygenated KRB buffer containing either no additive (n=7, control group), or 20 μM PNACE (n=7).

ethanol oxidation = details: intragastric gavage, dogs; cited from earlier work
reperfused rat hearts = details: cited from earlier work
[2] = system: ketoacidotic diabetic rats; experiment: Treatment of ketoacidotic diabetic BB rats; format: in vivo
Protocol: Prediabetic male BB rats were purchased from the University of Massachussetts Breeding Center. They were treated with insulin (PZI 40 U/mL, Anpro Pharmaceutical), mean of 2.1 U for rats weighing between 250-300 g) as soon as they became hyperglycemic. They were used after at least three weeks of clinical stability and steady weight growth. Under general anesthesia, permanent catheters were inserted in a carotid artery and the controlateral external jugular vein. Then, the rats were deprived of insulin for two days. […] The rats were then treated with one of four protocols: […]

isolated rabbit hearts [3] = experiment: Recovery of isolated rabbit hearts following 25 min of warm ischemia; design: species or system New Zealand rabbits; details: 20 μM PNACE
Protocol: In the working mode, which simulates physiological conditions, hearts pump the buffer against a 85 cm hydrostatic pressure in the aorta. The mechanical performance of the hearts was assessed by monitoring heart rate, cardiac output, coronary flow, left ventricular pressure, and dP/dtmax. The latter parameter reflects the capacity of the heart to increase hydrostatic pressure in the left ventricle. Following 30 minutes of equilibration, the hearts were made ischemic for 25 minutes by clamping the aortic and left atrial canulas. Then, the clamps were removed to allow reperfusion with oxygenated KRB buffer containing either no additive (n=7, control group), or 20 μM pyruvate-N-acetyl-cysteine ethyl ester ([…]=7). PNACE was infused via a syringe pump into the inflowing perfusate. In the syringe, PNACE was dissolved in 0.1 mM HCl to prevent hydrolysis of the thioester.

preserved rat livers = experiment: Metabolic integrity of preserved rat livers upon reperfusion
Protocol: Improved function of preserved rat livers
The first group of livers (n=7, control group) was not preserved, but was perfused at 37° C. for 45 minutes. The second group of livers (n=8, preserved group) was flushed with ice-cold University of Wisconsin (UW) preservation solution and stored for 24 hours in ice-cold UW solution. Next, the livers were reperfused at 37° C. with non-recirculating KRB buffer containing 5 mM glucose. The third group of livers (n=8, preserved+PNACE group) was treated as the second group except that 20 μM PNACE was added to the UW preservation solution and to the reperfusion KRB buffer. During the last 45 min of (re)perfusion, the function of the three groups of livers was assessed by (i) the release of three cellular enzymes, i.e. lactate dehydrogenase, aspartate aminotransferase, and alanine aminotransferase, (ii) oxygen consumption, and (iii) the production of ketone bodies, ie β-hydroxybutyrate+acetoacetate, after addition of 1 mM octanoate to the perfusate.
Effect of PNACE on metabolic integrity of preserved rat livers upon reperfusion

[4] = Stability of PNACE in solution; format: physicochemical
Text: However, the present inventive compound has proven to be readily manufacturable and very effective in the prevention of organ damage associated with reperfusion injury. The compound has been prepared in pure form and in gram amounts. Its formula has been confirmed by elemental analysis and gas chromatography-mass spectrometry. The compound is stable in slightly acidic solutions (pH 4-5). […] The compound has also been synthesized labeled with three deuterium ^2 H atoms on the N-acetyl moiety. This deuterated compound is used as an internal standard for the assay of the compound by isotope dilution gas chromatography-mass spectrometry.

myocardial infarct = experiment: Decrease in myocardial infarct size in swine (LAD occlusion/reperfusion); format: in vivo
Protocol: Decrease in myocardial infarct size in swine by DPAG.
The animals were anesthetized, instrumented, and subjected to 60 minutes of total occlusion of the distal 2/3 of the left anterior descending coronary artery, followed by 120 min of reperfusion. The area of the infarct was stained with tetrazolium, and infarct size quantitated on 5 mm slices of tissue. Treatment with DPAG was started with the onset of reperfusion (8.0 mg/kgmin for 120 min).

perfused rat livers [5] = experiment: Acceleration of ethanol oxidation by components of pyruvate esters in perfused rat livers; details: perfused liver
Protocol: Acceleration of ethanol oxidation
Rat livers were infused with ethanol and the components of the esters of glycerol-and-DHA pyruvate to represent the conditions that will occur after ester hydrolysis. […] After 10 min baseline, the influent perfusate was enriched with various equimolar concentrations of the components of the esters, ie DHA+Na-pyruvate, or glycerol+Na-pyruvate (up to 2.2 mM). These conditions simulated infusion and hydrolysis of glycerol- or DHA-monopyruvate. The uptakes of ethanol, pyruvate, DHA and glycerol, as well as the productions of lactate and glucose were measured.

[6] = Therapeutic pyruvate concentration in vivo, infusion of rats; design: species or system rat
Protocol: Therapeutic pyruvate concentration in vivo with DPAG
After preparing pure DPAG, experiments were performed to test whether it could be used to impose a therapeutic concentration of 1 mM pyruvate in arterial blood. Overnight-fasted rats, anesthetized with halothane, were infused in the jugular vein with DPAG at 90 μmol·min^-1 ·kg^-1 for 90 min. This rate corresponds to about 120% of the rats' caloric requirement. Five blood samples (70 μl) were taken from the carotid artery between 60 and 90 min. The arterial concentrations of pyruvate, lactate, and glycerol were clamped at 1.0, 2.5, and 0.8 mM, respectively. Corresponding portal vein concentrations at 90 min were 0.6, 2.5, and 1.0 mM, respectively. FIGS. 8 and 9 show blood concentrations of metabolites in rats infused with DPAG (panel A) and in control rats infused with saline (panel B). Control rats show normal arterial concentrations of pyruvate (0.05 mM) and lactate (0.3 to 0.6 mM; normal values for lactate are up to 1.5 mM). In rats infused with DPAG, the arterial concentrations of pyruvate and lactate were clamped at 1.0, and 2.5 mM, respectively. Corresponding portal vein concentrations at 90 min were 0.6 and 2.5 mM, respectively. Arterial glucose remained at 5-6 mM. […] Thus, DPAG can be safely used to set up the 1 mM target concentration of pyruvate expected to be beneficial for the treatment of reperfusion injury. […] Third, during peripheral administration of DPAG at 90 μmol·min^-1 ·kg^-1, portal pyruvate concentration was about 2/3 that which yielded a 3 to 6-fold increase in ethanol uptake by perfused rat livers. A portal pyruvate concentration of 1 mM could be achieved (i) by increasing the peripheral infusion of DPAG to 120 μmol·min^-1 ·kg^-1, or (ii) by administering DPAG enterally to better target portal vein concentrations.

perfused rat livers [7] = experiment: Effect of DPAG on ethanol uptake by perfused rat livers; details: DPAG raised from zero to 0.5 mM, 2 mM ethanol, read-out: increase of ethanol uptake by the liver
Protocol: The effect of DPAG on the rate of ethanol uptake by perfused rat livers was also tested. Livers were perfused with non-recirculating buffer containing 4 mM glucose, 2 mM ethanol and variable concentrations of DPAG (0 to 1.5 mM). […] Note that 0.5 mM DPAG corresponds to 1 mM pyruvate after hydrolysis. Thus, to accelerate ethanol oxidation in vivo, the rate of DPAG administration should be adjusted to achieve a 1 mM concentration of free pyruvate in the portal vein. When DPAG was infused to live rats at 90 μmol·min^-1·kg^-1, the portal vein concentration of pyruvate was 0.6 mM. A portal pyruvate concentration of 1 mM could be achieved in vivo (i) by increasing the peripheral infusion of DPAG to 120 μmol·min·^-1 ·kg^-1, or (ii) by administering DPAG enterally to better target portal vein concentrations.

[8] = Group III preserved + PNACE (20 μM), 25-30 min.
[9] = preserved reperfused rat livers, 20 μM PNACE

Compound: CC(C)NCC(O)c1ccc(O)c(O)c1 (stereo not shown) [isoproterenol]
cardiac output after isoproterenol (isolated rabbit hearts [1]): almost zero

Compound: O=C(O)O [NH4 HCO3]
rate of ethanol oxidation (ethanol oxidation): increases the rate of ethanol oxidation

Compound: CC(=O)N[C@@H](CS)C(=O)O [acetylcysteine]
production of ROS (reperfused rat hearts): decreases the production of ROS

Compound: insulin
decrease of total KB concentration ([2]; 0.75 U insulin intravenously + saline, 2 hr): 30%

stability in slightly acidic solutions ([4]; pH 4-5): stable | hydrolysis to pyruvate and N-acetylcysteine ethyl ester ([4]; pH 7.4): slowly hydrolyzed
Compound: CCOC(=O)[C@H](CSC(=O)C(C)=O)NC(C)=O [PNACE, Pyruvate-N-acetyl-L-cysteine ethyl ester]
duration of functional recovery (isolated rabbit hearts [3]): lasted throughout the 30 minute reperfusion experiment | Release of lactate dehydrogenase (preserved rat livers; Group III preserved + PNACE (20 μM), 10-14 min.): 4.5 U/L.g | Oxygen consumption (preserved rat livers; [8]): 2.4 µmol/min/g | Release of alanine aminotransferase (preserved rat livers; [8]): 0.33 U/L.g | Release of aspartate amino-transferase (preserved rat livers; [8]): 0.73 U/L.g | Ketone body production (preserved rat livers; Group III preserved + PNACE (20 μM), 25-30 min., 1 mM octanoate): 1.4 µmol/min/g | capacity of the liver to oxidize fatty acids to ketone bodies (preserved rat livers; [9]): restores partially the capacity of the liver to oxidize fatty acids to ketone bodies | initial release of tissue enzymes (preserved rat livers; [9]): markedly decreases the initial release of tissue enzymes | oxygen consumption (in words) (preserved rat livers; [9]): restores oxygen consumption to the level of non-preserved livers | infarct size, percent of the area at risk for infarction (myocardial infarct; PNACE group (n=4)): about 16±4%

increase in ethanol uptake by perfused rat livers (perfused rat livers [5]): 3-6 fold
Compound: CC(=O)C(=O)O [pyruvate]

Compound: CC(=O)OCC(COC(=O)C(C)=O)OC(=O)C(C)=O (stereo not shown) [DPAG, dipyruvyl-acetyl-glycerol]
infarct size, percent of the area at risk for infarction (myocardial infarct; DPAG 8.0 mg/kgmin for 120 min from onset of reperfusion, n=6, p<0.0005 vs control 40.0±3.6%): 9.1±3.8% | effect on heart rate or ventricular pressure (myocardial infarct; DPAG infusion): did not affect heart rate or ventricular pressure | Arterial glucose ([6]; DPAG 90 μmol.min^-1.kg^-1): 5 to 6 mM | portal vein concentration of lactate ([6]; DPAG 90 μmol.min^-1.kg^-1, at 90 min): 2.5 mM | acid-base and electrolyte parameters of aortic blood ([6]; DPAG 90 μmol.min^-1.kg^-1, final samples): normal acid-base and electrolyte parameters | arterial concentration of lactate ([6]; DPAG 90 μmol.min^-1.kg^-1 jugular vein, 60-90 min): 2.5 mM | sodium overload and/or acid-base perturbations ([6]; DPAG at 1 mM arterial pyruvate): without sodium overload and/or acid-base perturbations | increases in glucose and lactate concentrations ([6]; DPAG at 120% of the caloric requirement): lack of major increases in glucose and lactate concentrations | fold induction at 500 µM (perfused rat livers [7]): 2.5 | decrease of total KB concentration ([2]; DPAG 90 μmol.min^-1 kg^-1 in saline infusion, in 2 hr): 90% | tolerability of massive doses ([2]; compromised BB rats in diabetic ketoacidosis): well tolerated
